Data published in patent US20080280999A1, “Process for Making Pharmaceutical Compositions with a Transient Plasticizer” (NOVARTIS AG, priority 2005, published 2008).
≈ marks a conversion by molar mass, not a printed value.

Assay: Solubility in water
Assay type: physicochemical
Protocol: As used herein, the term “poorly water-soluble” or “poorly soluble” refers to having a solubility in water at 20° C. of less than 1%, i.e., a “sparingly soluble to practically insoluble, or insoluble drug” as described in Remington, The Science and Practice of Pharmacy, 21st Edition, p. 212, D. B. Troy, Ed., Lippincott Williams & Wilkins (2005).

| solubility [µg/mL] | solubility in water (in words) | Structure (SMILES) |
| --- | --- | --- |
| 10 (≈ 17.4 µM) |  | CN(Cc1ccccc1)C(=O)[C@H](Cc1ccc2ccccc2c1)N(C)C(=O)[C@@H]1CCCN1c1nc(=O)c2ccccc2[nH]1 |
|  | insoluble in water | CC[C@@H]1/C=C(\C)C[C@H](C)C[C@H](OC)[C@H]2O[C@@](O)(C(=O)C(=O)N3CCCC[C@H]3C(=O)O[C@H](/C(C)=C/[C@@H]3CC[C@H](Cl)[C@H](OC)C3)[C@H](C)[C@@H](O)CC1=O)[C@H](C)C[C@@H]2OC [Pimecrolimus] |
